Experimental findings from ChEMBL document CHEMBL1130510, “Synthesis and in vitro cytotoxicity of aminocoumarin platinum(II) complexes” (Bioorg Med Chem Lett, 1997) are described below.

The test system of experiment [1] is Caco-2. The experiment is described as follows: Compound was tested in vitro for its cytotoxic activity against Caco-2T cells in MTT assay and activity is expressed as IC50. Type of experiment: functional, cell-based, Homo sapiens.
Experiment [2] relates to Caco-2. The experiment is described as follows: Compound was tested in vitro for its cytotoxic activity against Caco-2T cells in MTT assay and activity is expressed as IC80. Type of experiment: functional, cell-based. To be noted: Homo sapiens.

As usually defined, the IC50 is the point on the concentration scale where inhibition reaches its midpoint. A low value points to higher potency. What is called IC80 is the point of the concentration-response curve where the effect stands at 80%. A higher IC80 goes with a need for much substance.

Substance “3-Acetamido-6-Aminocoumarin Platinum (II) Complex [listing 1 of 2 here]” came in with an IC50 in the experiment on Caco-2 [1] of 80 µg/mL.

In the experiment on Caco-2 [2], “3-Acetamido-6-Aminocoumarin Platinum (II) Complex [listing 2 of 2 here]” gave an 80% effect concentration (IC80) of 30 µg/mL.

Take 6-Aminocoumarin Platinum (II) Complex: in the experiment on Caco-2 [2], it took 100 µg/mL to reach the 80% level (IC80).

In turn, “7-Amino-4-Methyl-Coumarin Platinum (II) Complex [listing 1 of 2 here]” gave an IC50 with Caco-2 [1] of 100 µg/mL.

“7-Amino-4-Methyl-Coumarin Platinum (II) Complex [listing 2 of 2 here]” returned an IC80 in the experiment with Caco-2 [2] of 30 µg/mL.

In the experiment on Caco-2 [1], “7-Amino-4-Trifluoromethyl-Coumarin Platinum (II) Complex [listing 1 of 2 here]” registered an IC50 of 10 µg/mL.

In the experiment on Caco-2 [2], “7-Amino-4-Trifluoromethyl-Coumarin Platinum (II) Complex [listing 2 of 2 here]” had an IC80 of 5 µg/mL.
